Measurements reported in US10675293B2, “Nucleoside agents for the reduction of the deleterious activity of extended nucleotide repeat containing genes” (The Board of Trustees of the Leland Stanford Junior …, priority 2015, dated 2020).
“Also recorded” adds a separate entry of the source.

Key:
[1] = biological target: T1, Supt4h-YC / Supt5h NGN-YN interaction (Homo sapiens, UniProt O00267+P63272); test: Bimolecular fluorescence complementation (BiFC) assay in 2-PN4 stable cells; type: cell-based; conditions: 24 hr with Doxycycline 4 μg/ml
T1 construct: NGN-YN is a genetic engineered protein in which Supt5h NGN domain is fused to YFP YN; expressed in transfected cells
Description: Human Supt4h and Supt5hNGN were fused in-frame with the YC and YN respectively. The YN and YC represent the N- and C-terminal domain of yellow fluorescent protein Venus. To prevent a change in protein folding caused by the conjugation of two polypeptides (Kerppola, “Design and implementation of bimolecular fluorescence complementation (BiFC) assays for the visualization of protein interactions in living cells,” Nature protocols (2006) 1:1278-1286), a protein linker containing additional 10 amino acid residues was included in the fusion protein. Also, extra amino acids GSHM were incorporated into the Supt5hNGN to increase its protein stability (Wenzel et al., “Crystal structure of the human transcription elongation factor DSIF hSpt4 subunit in complex with the hSpt5 dimerization interface,” The Biochemical journal (2010) 425:373-380). Supt4h, NGN, YC, and YN were amplified by PCR to generate DNA fragments containing the nucleotide sequence of protein linker. Supt4h and NGN PCR products then were mixed with the PCR product of YN or YC for secondary overlapping PCR. Finally, the resulting Supt4h-YC and NGN-YN DNA fragment was cloned into plasmid vector pcDNA3-HA and pFLAG-CMV-2 respectively.
(§1) Tet-on HeLa cells were transfected with linearized pTRE-HA-Supt4h-VC-Flag-NGN-VN plasmid construct using LipofectAMINE 2000 (Invitrogen). After transfection, cells were cultured initially in growth medium containing puromycin (1 μg/ml) and then selected for clones that show YFP fluorescence in the presence of tetracycline (4 μg/ml). The stable line having the strongest fluorescence signal was isolated and designated as 2-PN4. Likewise, 21-VS stable line was created using pTRE-HA-Venus.
(§2) Stable lines 2-PN4 and 21-VS were pre-cultured in 6-well plates, followed by an incubation of Doxycycline (4 μg/ml) together with various concentrations of chemical compounds for 24 hr. Cells were washed with PBS (Sigma) and monitored by microscope (20× magnification). Photos were taken using Nikon D500 camera with a setting of ISO 1600, shutter 1/200 for the light images, and shutter ½ for the fluorescence images. For quantification of fluorescence intensity, 5 photos with similar cell number were taken and the fluorescence signal was measured by Metamorph software individually. The average of overall fluorescence signal was determined and compared to the one observed in DMSO-treated control sample.
For the purpose of high-throughput drug screening, based on the BiFC method as mentioned above, we have created a stable cell line that co-expresses NGN-YN and Supt4h-YC under the control of a tet-on inducible promoter. […] If the complementation that is driven by NGN and Supt4h interaction is inhibited by a given test compound, the de novo YFP fluorescence signal is affected. […]

21-VS cells (HA-Venus) = test: Control fluorescence of 21-VS stable cells expressing intact Venus; type: cell-based; conditions: same experimental conditions as 2-PN4 cells
Description: The HA-Supt4h-YC and FLAG-NGN-YN fragments were amplified by PCR using plasmid constructs described above and sub-cloned individually into the pTRE-tight-BI vector (Clontech Laboratories), which contain a bi-directional CMV promoter under the control of tetracycline. The coding sequence of yellow fluorescence protein Venus with a HA-epitope in its N-terminus was PCR-amplified and cloned into the vector to generate pTRE-HA-Venus.
as §1, with “Likewise, 21-VS stable line was created using pTRE-HA-Venus.” left out
as §2, with “For quantification of fluorescence intensity, 5 photos with similar cell number were taken and the fluorescence signal was measured by Metamorph software individually.” left out, “sample. […]” for “sample.”

[2] = test system: Supt4h-YC and NGN-YN protein expression; test: Western blot of Supt4h-YC and NGN-YN protein levels in 2-PN4 cells; type: cell-based, human
Description: As described (Liu et al., “Spt4 is selectively required for transcription of extended trinucleotide repeats,” Cell (2012) 148:690-701), equal amounts of protein were resolved by electrophoresis on 12% sodium dodecyl sulfate (SDS)-polyacrylamide gels, and transferred onto nitrocellulose membranes (nitrocellulose, Waterman 0.45 μM, NBA085C). After blocking with 5% low-fat milk in Tris-buffer saline containing 0.1% Tween-20, membranes were probed with primary antibodies, incubated with a horseradish peroxidase (HRP)-conjugated secondary antibody, and detected by ECL reagent (enhanced chemiluminescence, PerkinElmer).

[3] = biological target: T2, Supt4h-YC / NGN-YN complex (Homo sapiens, UniProt O00267+P63272); test: Co-immunoprecipitation of HA-Supt4h-YC with Flag-NGN-YN from 2-PN4 cells; type: cell-based; conditions: 20 μM, 36 hr, immunoprecipitation with anti-HA
T2 construct: NGN-YN is a genetic engineered protein in which Supt5h NGN domain is fused to YFP YN; expressed in transfected cells
Description: 2-PN4 cells, following a treatment of 6CR (Cf=20 μM) for 36 hr, were lysed with modified RIPA buffer (50 mM Tris-HCl [pH 7.5], 150 mM NaCl, 1% NP-40, 1% sodium deoxycholate), supplement with 1 mM Na3VO4, 1 mM DTT, 1 mM PMSF and protease inhibitor cocktail (Sigma). The collected protein lysates (1 mg) were diluted with modified RIPA buffer to a final volume of 0.5 ml and then incubated with anti-HA antibodies (1 μg) overnight. Following incubation with protein A agarose beads (Millipore) for another 6 hr, the beads were washed twice with modified RIPA buffer containing 20 μM 6CR. All of these performances were carried out at 4° C. For detection of proteins that coprecipitated with HA-Supt4h-YC, the immunocomplex was fractionated by SDS-PAGE, followed by Western blotting analysis with anti-HA and anti-FLAG antibodies.

mutant Htt gene = test: RT-PCR of Htt mRNA in Hdh Q111/Q111 striatal cells; type: cell-based, mouse; conditions: compared to mock control
Description: (§3) Tet-on HeLa cells (Clontech Laboratories), and stable line 2-PN4 and 21-VS were cultured in DMEM (Gibco) supplemented with 10% Tet-off fetal bovine serum (Gibco) at 37° C. with 5% CO2. Hdh Q7/Q7 (mouse), Hdh Q111/Q111 (mouse) were cultured in DMEM (HyClone) supplemented with 10% fetal bovine serum at 33° C. with 5% C02.
(§4) Total RNA was extracted from murine neuronal cells using TRI Reagent (Sigma). For cDNA conversion, 2 μg of total RNA was mixed with 5 μM random primer, 5 μM SnRNA U6 rt-PCR primer and 500 μM dNTPs, incubated at 65° C. for 5 min and then chilled on ice. After addition of First-Strand Buffer, DTT (Cf=10 mM) and 1 μl reverse transcriptase (Invitrogen), the reaction was carried out at 42° C. for 1 hr. Equal volumes of cDNA products were PCR amplified and resolved on 2.5% agarose gels to determine the abundance of Htt transcripts after normalization with U6 or 18S ribosomal RNA.

wild-type Htt gene = test: RT-PCR of Htt mRNA in Hdh Q7/Q7 striatal cells; type: cell-based, mouse; conditions: compared to mock control
Description: as §3, §4

[4] = test system: mutant Huntingtin protein; test: Western blot of mutant HTT in Huntington's disease patient iPSC ND36999; type: cell-based, human; conditions: iPSC with 180 CAG repeats, 24 hr
Description: (§5) Cell samples were lysed in 30 mM Tris-HCl, pH 8.0, 5 mM NaCl, 0.1% Triton X-100 for 10 min on ice. The supernatants from spinning (14 k rpm for 10 min) were collected. The protein concentrations were determined by BCA assay (Pierce, ThermoFisher). Equal amounts of protein were loaded onto 4-12% gel. After electrophoresis, the gels were transferred to nitrocellulose membranes by wet transfer at 35V for 16 hr. The protein level of mutant HTT, total HTT and tubulin were determined by immunoblotting with anti-poly Glutamine (MAB1574 from Millipore), anti-Huntingtin protein (MAB2166 from Millipore) and anti-alpha tubulin (AJ1034a from ABGENT). Blots were imaged on a Li-Cor Odyssey infrared imager. The bands intensities were determined by Li-Cor Odyssey software.
(§6) To test whether the nucleoside 6-Azauridine (HD101) and (−)-6-Azauridine 2′,3′,5′-triacetate (HD106) can affect the expression of proteins with long polyQ domains, one iPSC (induced pluripotent stem cell) line ND36999, which was derived from a Huntington's disease patient who carries one allele of mutant htt gene with 180 CAG repeats, was purchased from the Coriell Institute. The iPSCs were plated into a 24-well plate coated with Matrigel. […] Cells were lysed and the protein concentrations were determined by BCA assay. […] The image (FIG. 10) was taken and the quantification was made by Li-Cor Odyssey imaging system.

total Huntingtin protein = test: Western blot of total HTT in Huntington's disease patient iPSC ND36999; type: cell-based, human; conditions: iPSC with 180 CAG repeats, 24 hr
Description: as §5, §6

| Compound | fluorescence intensity of 2-PN4 cells relative to control sample ([1]; 10 μM) | BiFC fluorescence signal of 2-PN4 cells ([1]; various concentrations) | fluorescence signal of 21-VS cells (21-VS cells (HA-Venus)) | protein expression of Supt4h-YC and NGN-YN [2] | complex formation of Supt4h-YC and NGN-YN [3] | Htt mRNA transcribed from mutant allele (mutant Htt gene) | Htt mRNA in cells with homozygous wild-type Htt allele (wild-type Htt gene) | mutant Huntingtin protein level [4] | total Huntingtin protein expression level (total Huntingtin protein) |
| --- | --- | --- | --- | --- | --- | --- | --- | --- | --- |
| OC[C@H]1O[C@@H](n2cnc3c(Cl)ncnc32)C(O)C1O (stereo partly drawn) [6CR, 6-Chloropurine riboside] | decreased to half of control sample | reduces the fluorescence signal of 2-PN4 cells in a concentration-dependent manner; also recorded: inhibits Supt4h-YC and NGN-YN interaction | not altered | does not interfere with the protein expression | lower the complex formation | down-regulated; also recorded: reduces the expression of mutant Htt gene | not detectable |  |  |
| CC(=O)OC[C@H]1O[C@@H](n2ncc(=O)[nH]c2=O)[C@H](OC(C)=O)[C@@H]1OC(C)=O [HD106, (−)—6-Azauridine 2′,3′,5′-Triacetate] |  |  |  |  |  |  |  | preferentially decrease mutant Huntingtin protein in a dose dependent manner; also recorded: reduced mutant huntingtin expression in a dose dependent manner | little effect |
